Laboratory results published in ChEMBL document CHEMBL5291721, “A preclinical secondary pharmacology resource illuminates target-adverse drug reaction associations of marketed drugs” (Nat Commun, 2023).

Columns and labels:
[1] = biological target: T1, Alpha-1A adrenergic receptor (Homo sapiens, UniProt P35348)
T1 sequence (P35348 whole entry): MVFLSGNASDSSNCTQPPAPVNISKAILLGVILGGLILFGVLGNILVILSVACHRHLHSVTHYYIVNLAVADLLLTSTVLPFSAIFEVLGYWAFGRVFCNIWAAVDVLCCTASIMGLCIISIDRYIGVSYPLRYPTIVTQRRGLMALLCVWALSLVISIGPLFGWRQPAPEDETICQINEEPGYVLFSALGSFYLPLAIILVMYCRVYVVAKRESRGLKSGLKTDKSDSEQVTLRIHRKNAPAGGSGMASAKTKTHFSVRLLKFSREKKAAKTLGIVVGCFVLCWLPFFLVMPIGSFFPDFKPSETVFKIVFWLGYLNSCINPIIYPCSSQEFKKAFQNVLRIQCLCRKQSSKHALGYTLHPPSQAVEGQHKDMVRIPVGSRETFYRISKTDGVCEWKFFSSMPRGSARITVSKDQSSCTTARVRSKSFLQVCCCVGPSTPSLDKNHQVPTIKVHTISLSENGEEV

[2] = biological target: T2, Gastrin/cholecystokinin type B receptor (Homo sapiens, UniProt P32239)
T2 sequence (P32239 whole entry): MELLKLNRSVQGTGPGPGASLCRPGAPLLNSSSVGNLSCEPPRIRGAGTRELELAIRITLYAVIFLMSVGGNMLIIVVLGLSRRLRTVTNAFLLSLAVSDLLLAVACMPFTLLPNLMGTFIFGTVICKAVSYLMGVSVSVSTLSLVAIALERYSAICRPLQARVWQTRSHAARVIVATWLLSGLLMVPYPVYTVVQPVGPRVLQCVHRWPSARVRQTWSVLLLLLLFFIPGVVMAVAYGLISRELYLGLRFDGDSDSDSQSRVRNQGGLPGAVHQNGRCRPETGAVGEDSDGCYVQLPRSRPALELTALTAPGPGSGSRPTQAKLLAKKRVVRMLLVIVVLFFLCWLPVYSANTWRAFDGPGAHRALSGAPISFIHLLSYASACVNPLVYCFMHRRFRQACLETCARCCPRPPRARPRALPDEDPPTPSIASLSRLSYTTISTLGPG

[3] = biological target: Beta-1 adrenergic receptor (Homo sapiens, UniProt P08588); type: functional
Adenosine receptor A1 = biological target: T3, Adenosine receptor A1 (Homo sapiens, UniProt P30542)
T3 sequence (P30542 whole entry): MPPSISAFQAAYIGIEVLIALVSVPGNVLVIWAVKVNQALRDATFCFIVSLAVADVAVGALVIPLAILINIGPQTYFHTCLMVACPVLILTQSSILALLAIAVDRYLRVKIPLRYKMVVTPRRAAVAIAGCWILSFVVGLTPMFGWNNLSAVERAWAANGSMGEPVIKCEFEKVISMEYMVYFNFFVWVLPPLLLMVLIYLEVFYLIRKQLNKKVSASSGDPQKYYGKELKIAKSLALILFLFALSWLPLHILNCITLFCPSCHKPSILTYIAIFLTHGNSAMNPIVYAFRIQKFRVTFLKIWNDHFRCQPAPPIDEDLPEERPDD

[4] = biological target: T4, Type-1 angiotensin II receptor (Homo sapiens, UniProt P30556)
T4 sequence (P30556 whole entry): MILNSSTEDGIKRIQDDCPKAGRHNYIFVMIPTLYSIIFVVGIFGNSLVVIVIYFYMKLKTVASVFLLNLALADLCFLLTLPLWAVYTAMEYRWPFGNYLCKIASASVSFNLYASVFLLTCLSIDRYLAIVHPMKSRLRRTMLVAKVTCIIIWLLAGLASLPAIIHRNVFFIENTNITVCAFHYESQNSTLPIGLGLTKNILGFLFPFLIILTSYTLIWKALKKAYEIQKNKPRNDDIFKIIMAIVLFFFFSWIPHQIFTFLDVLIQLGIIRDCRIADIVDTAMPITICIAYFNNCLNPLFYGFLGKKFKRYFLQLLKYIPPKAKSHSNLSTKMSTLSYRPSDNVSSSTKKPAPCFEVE

[5] = biological target: T5, Cholecystokinin receptor type A (Homo sapiens, UniProt P32238)
T5 sequence (P32238 whole entry): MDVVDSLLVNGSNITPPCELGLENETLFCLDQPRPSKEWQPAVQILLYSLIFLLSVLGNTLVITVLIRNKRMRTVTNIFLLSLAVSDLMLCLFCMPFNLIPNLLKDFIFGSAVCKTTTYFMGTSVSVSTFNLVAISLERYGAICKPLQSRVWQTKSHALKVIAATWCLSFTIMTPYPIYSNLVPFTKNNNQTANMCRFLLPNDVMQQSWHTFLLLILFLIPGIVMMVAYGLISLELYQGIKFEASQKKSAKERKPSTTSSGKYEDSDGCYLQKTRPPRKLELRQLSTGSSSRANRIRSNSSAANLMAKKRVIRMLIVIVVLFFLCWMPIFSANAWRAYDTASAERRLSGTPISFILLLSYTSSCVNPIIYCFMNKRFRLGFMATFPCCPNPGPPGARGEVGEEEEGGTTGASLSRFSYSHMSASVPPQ

[6] = biological target: T6, Muscarinic acetylcholine receptor M2 (Homo sapiens, UniProt P08172)
T6 sequence (P08172 whole entry): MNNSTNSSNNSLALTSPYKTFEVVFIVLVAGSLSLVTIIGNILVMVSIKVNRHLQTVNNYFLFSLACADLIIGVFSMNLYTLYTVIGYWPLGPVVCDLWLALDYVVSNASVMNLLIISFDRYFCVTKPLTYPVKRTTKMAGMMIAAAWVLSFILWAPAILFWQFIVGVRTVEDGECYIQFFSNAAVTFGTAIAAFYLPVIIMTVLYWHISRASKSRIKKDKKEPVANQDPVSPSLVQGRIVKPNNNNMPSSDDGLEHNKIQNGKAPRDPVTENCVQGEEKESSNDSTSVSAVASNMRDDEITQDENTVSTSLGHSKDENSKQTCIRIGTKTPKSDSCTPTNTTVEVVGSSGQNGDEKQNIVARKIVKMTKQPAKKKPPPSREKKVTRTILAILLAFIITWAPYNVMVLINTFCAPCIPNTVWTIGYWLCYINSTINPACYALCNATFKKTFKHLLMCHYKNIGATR

Adenosine receptor A2a = Adenosine receptor A2a (Homo sapiens, UniProt P29274)
[7] = biological target: T1, Alpha-1A adrenergic receptor; type: functional, cell-based
Further: assay procedure not described here.

Beta-1 adrenergic receptor, sequence (P08588 whole entry): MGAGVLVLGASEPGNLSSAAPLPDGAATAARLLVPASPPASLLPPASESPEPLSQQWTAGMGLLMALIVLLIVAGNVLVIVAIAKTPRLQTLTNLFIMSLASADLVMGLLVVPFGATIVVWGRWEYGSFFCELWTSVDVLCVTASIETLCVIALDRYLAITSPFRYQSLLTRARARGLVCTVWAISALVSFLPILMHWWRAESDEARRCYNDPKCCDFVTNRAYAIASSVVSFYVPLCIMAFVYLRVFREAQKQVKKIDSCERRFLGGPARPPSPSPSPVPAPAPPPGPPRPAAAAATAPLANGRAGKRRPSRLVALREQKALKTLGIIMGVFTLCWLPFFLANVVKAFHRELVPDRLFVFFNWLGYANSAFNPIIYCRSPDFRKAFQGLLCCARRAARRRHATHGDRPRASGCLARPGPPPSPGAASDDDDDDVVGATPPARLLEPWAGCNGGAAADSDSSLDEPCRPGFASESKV
Adenosine receptor A2a, sequence (P29274 whole entry): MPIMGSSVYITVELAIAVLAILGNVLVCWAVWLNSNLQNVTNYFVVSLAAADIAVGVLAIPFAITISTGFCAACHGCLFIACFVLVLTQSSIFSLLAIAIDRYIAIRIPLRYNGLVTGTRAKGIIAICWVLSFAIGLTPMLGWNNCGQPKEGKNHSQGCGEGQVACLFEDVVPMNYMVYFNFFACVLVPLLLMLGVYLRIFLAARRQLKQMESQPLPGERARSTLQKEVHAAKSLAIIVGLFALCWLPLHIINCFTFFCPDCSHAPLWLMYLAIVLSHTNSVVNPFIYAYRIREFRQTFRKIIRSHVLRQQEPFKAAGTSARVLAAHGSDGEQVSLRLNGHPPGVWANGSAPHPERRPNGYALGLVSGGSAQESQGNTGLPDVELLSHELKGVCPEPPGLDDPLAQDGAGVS

| Compound | AC50 [1] [µM] | AC50 [2] [µM] | AC50 [3] [µM] | AC50 (Adenosine receptor A1) [µM] | AC50 [4] [µM] | AC50 [5] [µM] | AC50 [6] [µM] | AC50 (Adenosine receptor A2a) [µM] | AC50 [7] [µM] |
| --- | --- | --- | --- | --- | --- | --- | --- | --- | --- |
| CC(CN1c2ccccc2Sc2ccccc21)N(C)C (configuration not stated) [PROMETHAZINE] | 0.162 | > 30 | > 10 | > 30 | > 30 | > 30 | 0.161 | > 30 | – |
| O=C1Cc2cc(CCN3CCN(c4nsc5ccccc45)CC3)c(Cl)cc2N1 [ZIPRASIDONE] | 0.0317 | > 30 | > 10 | > 30 | > 30 | > 30 | > 10 | > 30 | 0.0179 |
